Here are results for four compounds from US20130190524A1, “CYCLITOLS AND THEIR DERIVATIVES AND THEIR THERAPEUTIC APPLICATIONS” (UNIVERSITE DE STRASBOURG, priority 2006, published 2013).

One assay has as its target T1, free hemoglobin (Hb) (Homo sapiens, UniProt P68871).
T1 construct: the cells were hemolysed by addition of 2 volumes of cold distilled water; tissue EFS-Alsace; host or cells: red blood cell concentrate, hemolysed, stroma removed, passed over Sephadex G-25
The assay is described as follows: P50 (oxygen equilibrium curve, Hemox Analyzer) on free hemoglobin. The format is biochemical. Particulars: blood matrix Hb, free hemoglobin 100 μM, pH 7.4, 37° C.; for P50: effector 2 mM (effector/Hb ratio 20), n=3; for P50 increase: versus P50 control, effector 2 mM. The method, then: (§1) Some of the compounds described herein were tested for P50 on free hemoglobin (Hb) as well as human whole blood (WB) as 120 mM solutions. The hemoglobin solution was prepared from red blood cells concentrate (EFS-Alsace) by washing three times with 1 volume of saline (1500×g, 10 min), the cells were hemolysed by addition of 2 volumes of cold distilled water. After centrifugation (7000×g, 30 min) for stroma removal, 5 ml of the clear hemoglobin solution were placed on a 2.5 cm×30 cm column of Sephadex G-25 equilibrated with 0.1 M sodium chloride+10^−5 M EDTA. The protein was eluted with the same solution at a rate of about 20 ml/h [Benesch, R.; Benesch, R. E. and Yu, C. I. Reciprocal binding of oxygen and diphosphoglycerate by human hemoglobin. Proc. Natl. Acad. Sci. USA (1968) 59, 526-532].
The allosteric modulation of the effectors was measured by the change in p50, the partial pressure of oxygen for half-saturation. myo-Inositol hexaphosphate (myo-1HP) was purchased from Sigma. Oxygen equilibrium curves (OEC) were carried out with the Hemox Analyzer (TCS Scientific Co.) under the following conditions: pH 7.4, 135 mM NaCl, 5 mM KCl and 30 mM TES (N-[tris(hydroxymethyl)methyl]-2-aminoethanesulfonic acid) buffer at 37° C. The concentration of free hemoglobin was 100 μM (577 nm, ε=58.4 mM^−1 cm^−1 per tetramer) and the final concentration of the allosteric effector in the cuvette was 2 mM resulting in an effector/Hb ratio of 20.

In a further assay the test system is human whole blood (WB). As to the kind of experiment: P50 (oxygen dissociation curve, Hemox Analyzer) on human whole blood. The assay is classed as cell-based. Particulars: blood matrix WB, 120 mM compound solution, 1:1 with whole blood; for P50: incubated two hours at 37° C., n=3; for P50 increase: versus P50 control, two hours at 37° C. On the procedure:
as §1
Human blood was freshly withdrawn in heparinized tubes. The pH of the compound solutions was adjusted to approximately 7.0 and whole blood volumes at 1:1 ratios where incubated individually for two hours at 37° C. with the above compounds. Following, incubation, blood cells were washed 3 times with Bis-Tris-buffer. The measurement of oxygen dissociation curves was made in a Hemox-Analyzer instrument (TCS Scientific Corp.) A summary of P50 values for whole blood induced by the compounds is presented in Table 1.

T1 sequence (P68871 2-147 limits assumed): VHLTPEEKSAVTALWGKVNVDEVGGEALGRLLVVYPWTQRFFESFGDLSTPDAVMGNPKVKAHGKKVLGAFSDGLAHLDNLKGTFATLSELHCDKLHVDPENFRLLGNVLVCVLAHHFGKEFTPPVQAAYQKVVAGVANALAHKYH
T1 sequence (P69905 2-142 partner limits assumed): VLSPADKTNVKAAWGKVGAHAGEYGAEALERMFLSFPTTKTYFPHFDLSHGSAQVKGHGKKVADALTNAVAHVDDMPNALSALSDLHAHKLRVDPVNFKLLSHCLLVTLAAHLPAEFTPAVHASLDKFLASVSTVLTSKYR

In the case of `O=P(O)(O)O[C@H]1[C@H](OP(=O)(O)O)[C@@H](OP(=O)(O)O)[C@H](OP(=O)(O)O)[C@@H](OP(=O)(O)O)[C@H]1OP(=O)(O)O` [myo-IHP, myo-Inositol hexaphosphate, reference compound], on free hemoglobin (Hb), the P50 is reported as 48.37 ± 3.71 Torr and the P50 increase turned out to be 282%.
As for `O[C@H]1[C@H](O)[C@@H](O)[C@H](O)[C@@H](O)[C@H]1O` [myo-Inositol (Compound 5, Scheme 6)], the P50 was 27.25 ± 0.14 Torr on free hemoglobin (Hb) and 35.53 ± 1.43 Torr with human whole blood (WB). Also, the P50 increase on free hemoglobin (Hb) is given as 148%; with human whole blood (WB), 23%.
Regarding `O[C@H]1[C@H](O)[C@@H](O)[C@H](O)[C@@H](O)[C@H]1O` [myo-Inositol (Compound 7, Scheme 6)], at free hemoglobin (Hb), the P50 is recorded as 27.43 ± 1.07 Torr and the P50 increase came to 158%.
With “Hexasodium scyllo-inositol 1,2:3,4:5,6-trispyrophosphate [scyllo-ITPP (Compound 4, Scheme 5)]”, at free hemoglobin (Hb), the P50 came out at 23.02 ± 1.83 Torr and the P50 increase is on record as 127%. In the assay with human whole blood (WB), this compound registered a P50 of 34.10 ± 1.81 Torr and a P50 increase of 18%.
